Test results published in patent publication US10618900B2, “5-aromatic alkynyl substituted benzamide compound and preparation method, pharmaceutical composition, and use thereof” (SHANGHAI INSTITUTE OF MATERIA MEDICA, CHINESE ACADEMY OF …, priority 2015, dated 2020).
Read-outs that look alike come from different tables or passages of the source.

Tests used:
mice = test: Mouse tail suspension experiment; type: in vivo; settings: 20 mg/kg dose, within 6 min, FIG. 1
Source text: Experimental principle: Tail Suspension Test (TST) is a classic method which can quickly evaluate the efficacy of antidepressant drugs, excitement drugs, and sedative drugs. The principle is to use the status that the mouse give up struggle and enter the unique depression status after the tail was suspended and the attempt to escape was failed.
Experimental method: 20-24 g male mice were selected and the site at 2 cm part from the end of the tail was attached to a horizontal stick, so that the animal entered inverted state, and it's head was about 5 cm from the table, and boards were hung on both sides to separate the animal's sight. The immobility time of the administration group and the control group within 6 min were compared.

mGluR1 = mGluR1 (Homo sapiens (Human), UniProt Q13255); test: mGluR5/1 selectivity test, HEK293/mGluR1 cell line, Fluo-8 calcium; type: cell-based
Source text: Experimental material: HEK293/mGluR5 cell line, HEK293/mGluR1 cell line, Fluo-8 calcium ion fluorescent dye, positive control JNJ16259685

[1] = Pharmacokinetic experiment in rats; type: in vivo; settings: rat; for bioavailability: gavage 20 mg/kg vs intravenous 10 mg/kg, read-out: F (absolute bioavailability)
Procedure: Six healthy rats weighing 150-200 g were randomly divided into […] (n=3). The rats were given 10 mL/kg ZD043 by gavage and intravenous injection. The dose of gavage was 20 mg/kg, and the dose of intravenous administration was 10 mg/kg. The drug was formulated in DMSO/Tween 80/saline (5:5:90, v/v/v). The rats were fasted for 12 h before testing, and drinked water ad libitum. 2 h after administration, all rats ate together.
Gavage administration: 0, 0.25, 0.5, 1.0, 2.0, 4.0, 6.0, 8.0 and 24 h after administration;
Intravenous administration: 0, 5 min, 0.25, 0.5, 1.0, 2.0, 4.0, 6.0, 8.0 and 24 h after administration;
0.3 mL of blood was collected at the above time points from the rat eye vein venous plexus, placed in heparinized test tube and centrifugated at 11000 rpm for 5 min. Plasma was separated and the sample was frozed in −20° C. refrigerator.

Fmr1 knockout mice = test: Audiogenic epilepsy induced animal model of Fmr1 knockout mice; type: in vivo; settings: for Seizure level: level 0-4
Procedure: In this study, we used audiogenic epilepsy induced animal model of Fmr1 knockout mice, and evaluated the efficacy of compound ZD043 with epilepsy seizure latency, seizure level and epileptic mortality as evaluation indexes.
Species, strain: Fmr1 knockout mice, FVB.129P2-Pde6b^+ Tyr^c-ch Fmr1^tm1Cgr/J (strain number 004624)
Test reagent and preparation method: before the experiment, 2.0 mg ZD043 was weighed in 2 mL centrifuge tube, 10 uL DMSO was taken with a precise pipette to dissolve ZD043 powder, then 10 uL Tween80 was added, mixed and 980 uL of saline was added, well mixed to form a suspension liquid.
Methods: The mice were weighed on the day of the experiment. The mice were injected intraperitoneally into 19 to 22 days Fmr1 knockout mice respectively according to the experimental design group 30 minutes before the convulsive test. The mice to be tested were transferred to a sonic seizure test laboratory, placed in a transparent organic glass bucket, and a high-decibel siren loudspeaker was fixed on the top of organic glass bucket. Before delivering the stimulate sound, the mouse was allowed to explore freely for 1 minute, then turn on the loudspeaker, video recorded for the whole process by surveillance system, sound stimulated (≥120 dB) for 3 minutes, or stop after the animal was died, and the experiment was ended.
Test method: After the end of the experiment, the epilepsy seizure latency (2 grade appearance was regarded as seizures, and the longest latency period was recorded as 300 seconds if no epilepsy was observed) and seizure level (Level 0: no epileptic response; Level 1: rapid running and continuous jump; Level 2: paroxysmal epilepsy; Level 3: tonic epilepsy; Level 4: death) were analyzed according to video record.
Data processing: calculate the mean and standard error of the epilepsy seizure latency and seizure level as well as the percentage of epilepsy death of each group.

mGluR5 = mGluR5 (Homo sapiens (Human), UniProt P41594); test: In vitro activity test for mGluR5, HDB Fluo-8 calcium fluorescence detection (FLIPR); type: cell-based; settings: HEK293/mGluR5 cell line
Source text: Experimental instrument: FLIPR Tetra real-time fluorescence imaging analysis system
Experimental method: HDB Fluo-8 calcium fluorescence detection method
Experimental principle: HDB Fluo-8 calcium ion fluorescence detection method is a fast, simple and reliable fluorescence detection method of intracellular calcium concentration changes. The Fluo 8-AM fluorescent dye is an […] derivative of Fluo 8 which can easily penetrate the cell membrane into the cell by culture. The fluorescent dye into the cell will be hydrolyzed by intracellular esterase, the resulting Fluo 8 cannot easily pass through the lipid bimolecular membrane as a polar molecule, and will retain in the cell, and combine with calcium (Ca^2+) to produce fluoresces.
Cells expressing GPCR receptor protein (mGluR5) were first calibrated with a calcium ion sensitive fluorescent probe and then stimulated with the compound. After stimulation, the activation of the receptor lead to the calcium ion mobilization, and the fluorescent probe captures the calcium ion to induce the fluorescence signal. The signal can be read by a fluorescent plate reader. The fluorescent plate reader contains a sampling head for compound addition, thus enabling the change of the fluorescence value of the compound be read in real time. […]

Chain of mGluR1 (Q13255 19-1194): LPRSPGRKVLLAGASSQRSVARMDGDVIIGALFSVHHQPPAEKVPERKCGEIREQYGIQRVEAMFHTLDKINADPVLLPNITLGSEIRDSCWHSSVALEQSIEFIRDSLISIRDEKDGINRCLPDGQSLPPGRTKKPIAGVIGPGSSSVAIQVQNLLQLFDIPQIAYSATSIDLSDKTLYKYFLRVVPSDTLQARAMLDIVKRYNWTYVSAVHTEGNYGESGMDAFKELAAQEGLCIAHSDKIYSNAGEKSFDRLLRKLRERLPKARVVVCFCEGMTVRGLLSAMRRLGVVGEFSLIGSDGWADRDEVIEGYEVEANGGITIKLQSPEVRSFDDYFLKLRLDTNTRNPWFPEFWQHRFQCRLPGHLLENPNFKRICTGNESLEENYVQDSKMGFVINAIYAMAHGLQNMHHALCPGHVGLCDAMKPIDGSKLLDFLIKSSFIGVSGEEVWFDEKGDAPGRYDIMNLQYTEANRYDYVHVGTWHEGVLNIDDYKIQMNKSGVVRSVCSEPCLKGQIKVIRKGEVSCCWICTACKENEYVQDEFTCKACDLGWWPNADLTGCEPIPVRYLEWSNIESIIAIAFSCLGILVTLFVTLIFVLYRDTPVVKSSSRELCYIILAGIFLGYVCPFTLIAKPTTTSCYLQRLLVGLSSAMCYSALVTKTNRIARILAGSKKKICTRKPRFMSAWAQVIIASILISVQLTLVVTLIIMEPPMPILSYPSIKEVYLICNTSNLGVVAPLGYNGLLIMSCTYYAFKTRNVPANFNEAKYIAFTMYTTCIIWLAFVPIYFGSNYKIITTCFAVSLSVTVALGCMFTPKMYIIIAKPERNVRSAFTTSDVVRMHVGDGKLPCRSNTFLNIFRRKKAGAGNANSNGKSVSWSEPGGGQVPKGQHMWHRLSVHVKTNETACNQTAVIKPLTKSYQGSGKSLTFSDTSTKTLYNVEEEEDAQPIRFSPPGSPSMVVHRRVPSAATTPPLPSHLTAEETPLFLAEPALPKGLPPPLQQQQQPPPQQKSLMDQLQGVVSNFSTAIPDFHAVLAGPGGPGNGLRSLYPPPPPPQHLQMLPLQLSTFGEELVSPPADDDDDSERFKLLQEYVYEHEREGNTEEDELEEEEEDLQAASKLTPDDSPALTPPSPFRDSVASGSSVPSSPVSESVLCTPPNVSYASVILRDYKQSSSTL
Chain of mGluR5 (P41594 21-1212): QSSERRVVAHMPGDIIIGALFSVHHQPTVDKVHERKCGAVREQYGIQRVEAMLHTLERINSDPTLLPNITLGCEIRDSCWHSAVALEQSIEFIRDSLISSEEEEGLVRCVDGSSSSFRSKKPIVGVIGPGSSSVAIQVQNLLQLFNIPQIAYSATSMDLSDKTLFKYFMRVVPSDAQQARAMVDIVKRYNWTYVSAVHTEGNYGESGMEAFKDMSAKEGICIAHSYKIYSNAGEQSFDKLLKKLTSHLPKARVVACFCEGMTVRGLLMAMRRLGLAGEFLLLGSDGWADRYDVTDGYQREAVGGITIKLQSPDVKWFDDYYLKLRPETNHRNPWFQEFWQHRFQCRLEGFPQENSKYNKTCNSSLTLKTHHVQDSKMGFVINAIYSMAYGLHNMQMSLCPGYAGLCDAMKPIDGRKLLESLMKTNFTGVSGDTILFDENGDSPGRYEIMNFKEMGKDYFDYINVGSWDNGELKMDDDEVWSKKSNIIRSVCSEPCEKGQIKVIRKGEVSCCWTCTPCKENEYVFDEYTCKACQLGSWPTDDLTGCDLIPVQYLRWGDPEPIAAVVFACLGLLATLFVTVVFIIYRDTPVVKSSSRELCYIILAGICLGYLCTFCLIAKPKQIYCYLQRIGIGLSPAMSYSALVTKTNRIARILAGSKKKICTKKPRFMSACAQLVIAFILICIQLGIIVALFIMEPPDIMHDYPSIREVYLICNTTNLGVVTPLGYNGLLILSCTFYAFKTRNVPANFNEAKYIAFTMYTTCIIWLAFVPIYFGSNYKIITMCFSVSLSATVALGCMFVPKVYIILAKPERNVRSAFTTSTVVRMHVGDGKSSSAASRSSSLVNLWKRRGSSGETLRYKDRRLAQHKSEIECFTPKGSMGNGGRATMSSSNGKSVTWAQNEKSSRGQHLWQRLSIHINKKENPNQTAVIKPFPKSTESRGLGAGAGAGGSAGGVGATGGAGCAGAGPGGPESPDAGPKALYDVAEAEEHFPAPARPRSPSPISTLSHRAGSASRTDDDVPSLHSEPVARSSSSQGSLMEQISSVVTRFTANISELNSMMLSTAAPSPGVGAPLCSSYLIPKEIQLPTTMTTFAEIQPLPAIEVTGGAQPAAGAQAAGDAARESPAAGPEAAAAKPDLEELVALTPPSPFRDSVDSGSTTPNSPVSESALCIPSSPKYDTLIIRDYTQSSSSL

What does the source list for `Cc1nc(C#Cc2ccc(F)c(C(=O)Nc3cccnc3)c2)cs1` [ZD043]?
immobility time in the mouse tail suspension test (mice): significantly reduced; IC50 (mGluR1; HEK293/mGluR1 cell line): > 100000 nM; mGluR5/mGluR1 (mGluR1; selectivity ratio of IC50 values): >17854; AUC(0-t) ([1]; plasma, intravenous, vein 10 mg/kg, read-out: AUC0-t): 66400 ng·h/mL; AUC(0-inf) ([1]; plasma, iv, vein 10 mg/kg): 66400 ng·h/mL; Cmax ([1]; plasma, iv, vein 10 mg/kg): 75400 ng/mL; MRT ([1]; plasma, iv, vein 10 mg/kg): 37.2 min; Tmax ([1]; plasma, iv, vein 10 mg/kg): 4.98 min; AUC(0-t) ([1]; plasma, iv, vein 10 mg/kg, read-out: AUC0-t): 66400 ng·h/mL; bioavailability ([1]; plasma, oral): 31.6%; AUC(0-inf) ([1]; plasma, po, gavage 20 mg/kg): 10500 ng·h/mL; Cmax ([1]; plasma, po, gavage 20 mg/kg): 7120 ng/mL; MRT ([1]; plasma, po, gavage 20 mg/kg): 63.6 min; Tmax ([1]; plasma, po, gavage 20 mg/kg): 15 min; bioavailability ([1]; plasma, po): 31.6%; AUC(0-t) ([1]; plasma, po, gavage 20 mg/kg, read-out: AUC0-t): 10500 ng·h/mL; AUC(0-t) ([1]; gavage 20 mg/kg): 10491.2 ng·h/mL; t1/2 ([1]; gavage 20 mg/kg): 78 min; half-life ([1]; plasma, iv, 10 mg/kg, vein 10 mg/kg): 25.8 min; half-life ([1]; plasma, po, 20 mg/kg, gavage 20 mg/kg): 78.1 min; Mortality (%) (Fmr1 knockout mice; 10 mg/kg intraperitoneal): 25%; Latency (Fmr1 knockout mice; 10 mg/kg intraperitoneal, single injection, 30 min before test): 133.9 s; Seizure level (Fmr1 knockout mice; 10 mg/kg intraperitoneal): 1.4; Latency (Fmr1 knockout mice; 20 mg/kg intraperitoneal): 123.1 s; Mortality (%) (Fmr1 knockout mice; 20 mg/kg intraperitoneal): 12.5%; Seizure level (Fmr1 knockout mice; 20 mg/kg intraperitoneal): 1.5; Latency (Fmr1 knockout mice; 30 mg/kg intraperitoneal): 180 s; Mortality (%) (Fmr1 knockout mice; 30 mg/kg intraperitoneal): 0%; Seizure level (Fmr1 knockout mice; 30 mg/kg intraperitoneal): 0; IC50 (mGluR5): 5.6 nM
